Measured values reported in the supplement of paper PMC10307832.

Legend:
Assay in all cases: relative viability (nuclei count vs DMSO), 5 days (fraction); higher = more cells survive
ABC-1 = test system: ABC-1
Method in brief: (§1)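 Cells from lung cancer lines were seeded into 1536-well plates and, one day later, dosed by pin tool. Treatments were either a single drug or a fixed dose of an anchor drug with five library-drug doses (not always all listed) in √10 steps. After 5 days, nuclei were stained in a one-step fixation (final 0.05% Triton X-100, 1% formaldehyde, 1 ug/ml Hoechst) and counted on 4× images, and relative viability is the treated-to-vehicle nuclei ratio, as the median of duplicate plates.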

LK-2 = test system: LK-2
Method in brief: as §1

LOU-NH91 = test system: LOU-NH91
Method in brief: as §1

NCI-H1623 = test system: NCI-H1623
Method in brief: as §1

NCI-H1648 = test system: NCI-H1648
Method in brief: as §1

NCI-H1650 = test system: NCI-H1650
Method in brief: as §1

NCI-H1666 = test system: NCI-H1666
Method in brief: as §1

NCI-H1755 = test system: NCI-H1755
Method in brief: as §1

NCI-H2228 = test system: NCI-H2228
Method in brief: as §1

## COCC1(CO)C(=O)C2CCN1CC2 (stereo not given) [PRIMA-1MET] + Cc1cc(Nc2cc(N3CCN(C)CC3)nc(Sc3ccc(NC(=O)C4CC4)cc3)n2)n[nH]1 [Tozasertib] (partner 0.1 µM)
ABC-1; first compound 0.2 µM
  relative viability: 0.243
ABC-1; first compound 0.6325 µM
  relative viability: 0.188
ABC-1; first compound 2 µM
  relative viability: 0.17
ABC-1; first compound 6.325 µM
  relative viability: 0.145
ABC-1; first compound 20 µM
  relative viability: 0.259
LK-2; first compound 0.2 µM
  relative viability: 0.189
LK-2; first compound 0.6325 µM
  relative viability: 0.177
LK-2; first compound 2 µM
  relative viability: 0.144
LK-2; first compound 6.325 µM
  relative viability: 0.161
LK-2; first compound 20 µM
  relative viability: 0.132
LOU-NH91; first compound 0.2 µM
  relative viability: 0.618
LOU-NH91; first compound 0.6325 µM
  relative viability: 0.673
LOU-NH91; first compound 2 µM
  relative viability: 0.625
LOU-NH91; first compound 6.325 µM
  relative viability: 0.715
LOU-NH91; first compound 20 µM
  relative viability: 0.427
NCI-H1623; first compound 0.2 µM
  relative viability: 0.474
NCI-H1623; first compound 0.6325 µM
  relative viability: 0.449
NCI-H1623; first compound 2 µM
  relative viability: 0.445
NCI-H1623; first compound 6.325 µM
  relative viability: 0.452
NCI-H1623; first compound 20 µM
  relative viability: 0.367
NCI-H1648; first compound 0.2 µM
  relative viability: 0.415
NCI-H1648; first compound 0.6325 µM
  relative viability: 0.361
NCI-H1648; first compound 2 µM
  relative viability: 0.391
NCI-H1648; first compound 6.325 µM
  relative viability: 0.574
NCI-H1648; first compound 20 µM
  relative viability: 0.465
NCI-H1650; first compound 0.2 µM
  relative viability: 0.516
NCI-H1650; first compound 0.6325 µM
  relative viability: 0.377
NCI-H1650; first compound 2 µM
  relative viability: 0.492
NCI-H1650; first compound 6.325 µM
  relative viability: 0.537
NCI-H1650; first compound 20 µM
  relative viability: 0.0907
NCI-H1666; first compound 0.2 µM
  relative viability: 0.592
NCI-H1666; first compound 0.6325 µM
  relative viability: 0.601
NCI-H1666; first compound 2 µM
  relative viability: 0.66
NCI-H1666; first compound 6.325 µM
  relative viability: 0.554
NCI-H1666; first compound 20 µM
  relative viability: 0.388
NCI-H1755; first compound 0.2 µM
  relative viability: 0.699
NCI-H1755; first compound 0.6325 µM
  relative viability: 0.596
NCI-H1755; first compound 2 µM
  relative viability: 0.509
NCI-H1755; first compound 6.325 µM
  relative viability: 0.554
NCI-H1755; first compound 20 µM
  relative viability: 0.455
NCI-H2228; first compound 0.2 µM
  relative viability: 0.312
NCI-H2228; first compound 0.6325 µM
  relative viability: 0.262
NCI-H2228; first compound 2 µM
  relative viability: 0.322
NCI-H2228; first compound 6.325 µM
  relative viability: 0.203
NCI-H2228; first compound 20 µM
  relative viability: 0.0992

## COCC1(CO)C(=O)C2CCN1CC2 (stereo not given) [PRIMA-1MET] + Cc1nc(Nc2ncc(C(=O)Nc3c(C)cccc3Cl)s2)cc(N2CCN(CCO)CC2)n1 [Dasatinib] (partner 0.075 µM)
ABC-1; first compound 0.2 µM
  relative viability: 0.705
ABC-1; first compound 0.6325 µM
  relative viability: 0.539
ABC-1; first compound 2 µM
  relative viability: 0.58
ABC-1; first compound 6.325 µM
  relative viability: 0.451
ABC-1; first compound 20 µM
  relative viability: 0.279
LK-2; first compound 0.2 µM
  relative viability: 0.275
LK-2; first compound 0.6325 µM
  relative viability: 0.223
LK-2; first compound 2 µM
  relative viability: 0.329
LK-2; first compound 6.325 µM
  relative viability: 0.164
LK-2; first compound 20 µM
  relative viability: 0.116
LOU-NH91; first compound 0.2 µM
  relative viability: 0.608
LOU-NH91; first compound 0.6325 µM
  relative viability: 0.508
LOU-NH91; first compound 2 µM
  relative viability: 0.569
LOU-NH91; first compound 6.325 µM
  relative viability: 0.578
LOU-NH91; first compound 20 µM
  relative viability: 0.483
NCI-H1623; first compound 0.2 µM
  relative viability: 0.517
NCI-H1623; first compound 0.6325 µM
  relative viability: 0.563
NCI-H1623; first compound 2 µM
  relative viability: 0.518
NCI-H1623; first compound 6.325 µM
  relative viability: 0.577
NCI-H1623; first compound 20 µM
  relative viability: 0.519
NCI-H1650; first compound 0.2 µM
  relative viability: 0.341
NCI-H1650; first compound 0.6325 µM
  relative viability: 0.327
NCI-H1650; first compound 2 µM
  relative viability: 0.337
NCI-H1650; first compound 6.325 µM
  relative viability: 0.282
NCI-H1650; first compound 20 µM
  relative viability: 0.06
NCI-H1666; first compound 0.2 µM
  relative viability: 0.801
NCI-H1666; first compound 0.6325 µM
  relative viability: 0.79
NCI-H1666; first compound 2 µM
  relative viability: 0.807
NCI-H1666; first compound 6.325 µM
  relative viability: 0.846
NCI-H1666; first compound 20 µM
  relative viability: 0.639
NCI-H1755; first compound 0.2 µM
  relative viability: 0.476
NCI-H1755; first compound 0.6325 µM
  relative viability: 0.471
NCI-H1755; first compound 2 µM
  relative viability: 0.397
NCI-H1755; first compound 6.325 µM
  relative viability: 0.434
NCI-H1755; first compound 20 µM
  relative viability: 0.423
NCI-H2228; first compound 0.2 µM
  relative viability: 0.638
NCI-H2228; first compound 0.6325 µM
  relative viability: 0.399
NCI-H2228; first compound 2 µM
  relative viability: 0.541
NCI-H2228; first compound 6.325 µM
  relative viability: 0.392
NCI-H2228; first compound 20 µM
  relative viability: 0.0268
